From patent publication US20230110113A1, “FGFR TYROSINE KINASE INHIBITORS FOR THE TREATMENT OF HIGH-RISK NON-MUSCLE INVASIVE BLADDER CANCER” (Janssen Pharmaceutica NV, priority 2020, published 2023)

Assays:
[1] = test system: UM-UC-1 bladder cancer cell line (WT); conditions: MTT
[2] = test system: EJ28 bladder cancer cell line (FGFR status unknown); conditions: EJ28, FGFR3 status unknown
[3] = test system: T24 bladder cancer cell line (WT); conditions: T24, FGFR3 WT

## COc1cc(OC)cc(N(CCNC(C)C)c2ccc3ncc(-c4cnn(C)c4)nc3c2)c1 [erdafitinib, N-(3,5-dimethoxyphenyl)-N′-(1-methylethyl)-N-[3-(1-methyl-1H-pyrazol-4-yl)quinoxalin-6-yl]ethane-1,2-diamine]
[1]
  Cell viability max effect: 80%
[2]
  Sensitivity of cell line to erdafitinib (in words): not sensitive
[3]
  Sensitivity of cell line to erdafitinib (in words): not sensitive
